Assay [1] concerns the target PTGER2 (EP2) (Homo sapiens, UniProt P43116). Briefly: cell-based.
Assay [2] deals with PTRGER4 (EP4) (Homo sapiens, UniProt P35408). In words: cell-based.

Drawing on patent publication US11712438B2, “Phenyl derivatives as PGE2 receptor modulators” (IDORSIA PHARMACEUTICALS LTD, priority 2017, dated 2023), this text covers IC50 for 12 molecules.

The IC50 is the concentration that gives 50% inhibition. High values mean a need for much substance, low ones inhibition by little substance.

Sequence of PTRGER4 (EP4) (P35408 whole entry): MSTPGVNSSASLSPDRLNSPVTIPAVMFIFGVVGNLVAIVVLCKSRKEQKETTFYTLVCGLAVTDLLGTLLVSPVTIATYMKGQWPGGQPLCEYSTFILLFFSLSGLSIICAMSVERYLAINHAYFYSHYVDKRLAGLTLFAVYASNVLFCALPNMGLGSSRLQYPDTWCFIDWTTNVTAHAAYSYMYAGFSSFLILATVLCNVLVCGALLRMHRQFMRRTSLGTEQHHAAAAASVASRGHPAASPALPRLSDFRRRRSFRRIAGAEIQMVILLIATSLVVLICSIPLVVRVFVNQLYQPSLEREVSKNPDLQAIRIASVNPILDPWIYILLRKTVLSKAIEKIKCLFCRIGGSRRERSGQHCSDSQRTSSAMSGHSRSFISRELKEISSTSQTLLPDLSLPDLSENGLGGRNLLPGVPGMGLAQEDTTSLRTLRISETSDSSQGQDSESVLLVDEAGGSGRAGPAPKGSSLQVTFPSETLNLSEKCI
Sequence of PTGER2 (EP2) (P43116 whole entry): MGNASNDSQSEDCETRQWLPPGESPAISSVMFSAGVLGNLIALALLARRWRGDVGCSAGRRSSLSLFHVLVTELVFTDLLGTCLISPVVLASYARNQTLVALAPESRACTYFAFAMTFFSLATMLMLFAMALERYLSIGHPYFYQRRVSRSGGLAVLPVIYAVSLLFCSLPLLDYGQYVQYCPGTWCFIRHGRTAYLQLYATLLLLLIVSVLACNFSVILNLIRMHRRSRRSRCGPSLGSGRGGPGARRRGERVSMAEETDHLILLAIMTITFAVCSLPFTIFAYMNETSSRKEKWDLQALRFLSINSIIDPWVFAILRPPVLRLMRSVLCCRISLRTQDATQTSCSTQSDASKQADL

For the molecule `Fc1cc(Br)cc(F)c1CCNc1cc(-c2ccc3cc[nH]c3c2)ncn1` [Example 170, [2-(4-Bromo-2,6-difluoro-phenyl)-ethyl]-[6-(1H-indol-6yl)-pyrimidin-4-yl]amine], the IC50 in assay [1] amounted to 424 nM; in assay [2] it was 746 nM.
For the molecule `CCOc1cc(-c2cc(NCCc3ccc(OC(F)F)cc3OC)ncn2)ccc1C(=O)O` [Example 220, 4-{6-[2-(4-Difluoromethoxy-2-methoxy-phenyl)-ethylamino]-pyrimidin-4-yl}-2-ethoxy-benzoic acid], the IC50 in assay [1] was found to be 401 nM; in assay [2], 839 nM.
Turning to `CCOc1cc(-c2cc(NCCc3c(F)cc(Br)cc3F)ncn2)ccc1C(=O)NCCOC` [Example 301, 4-{6-[2-(4-Bromo-2,6-difluoro-phenyl)-ethylamino]-pyrimidin-4-yl}-2-ethoxy-N-(2-methoxy-ethyl)-benzamide], the figures for the IC50 in assay [1] and in assay [2] were 118 nM and 640 nM, respectively.
For the molecule `Cc1cc(-c2cc(NCCc3c(F)cc(Br)cc3F)ncn2)cc(C)c1CC(=O)O` [Example 255, (4-{6-[2-(4-Bromo-2,6-difluoro-phenyl)-ethylamino]-pyrimidin-4-yl}-2,6-dimethyl-phenyl)-acetic acid], the concentration for half-maximal inhibition (IC50) in assay [1] was 344 nM; in assay [2], 283 nM.
Turning to `CCCn1cc(-c2cc(NCCc3c(F)cc(Br)cc3F)ncn2)cc1C(=O)O` [Example 270, 4-{6-[2-(4-Bromo-2,6-difluoro-phenyl)-ethylamino]-pyrimidin-4-yl}-1-propyl-1H-pyrrole-2-carboxylic acid], the IC50 was determined as 316 nM in assay [1] and 700 nM in assay [2].
As for `CCOc1cc(-c2cc(NCCc3cc(C)c(C(F)F)cc3OC)ncn2)ccc1C(=O)O` [Example 199, 4-{6-[2-(4-Difluoromethyl-2-methoxy-5-methyl-phenyl)-ethylamino]-pyrimidin-4-yl}-2-ethoxy-benzoic acid], the IC50 was determined as 163 nM in assay [1] and 283 nM in assay [2].
`Cc1cc(-c2cc(NCCc3c(F)cc(Br)cc3F)ncn2)cc(F)c1CC(=O)O` [Example 256, (4-{6-[2-(4-Bromo-2,6-difluoro-phenyl)-ethylamino]-pyrimidin-4-yl}-2-fluoro-6-methyl-phenyl)-acetic acid]: the half-inhibitory concentration (IC50) in assay [1] is 574 nM; in assay [2], 584 nM.
The matching figures for `Fc1cc(Br)cc(F)c1CCNc1cc(-c2ccc3[nH]ncc3c2)ncn1` [Example 267, [2-(4-Bromo-2,6-difluoro-phenyl)-ethyl]-[6-(1H-indazol-5-yl)-pyrimidin-4-yl]amine]: 70 nM and 183 nM.
The matching figures for `CCc1cc(-c2cc(NCCc3c(F)cc(Br)cc3F)ncn2)ccc1C(=O)O` [Example 249, 4-{6-[2-(4-Bromo-2,6-difluoro-phenyl)-ethylamino]-pyrimidin-4-yl}-2-ethyl-benzoic acid]: 110 nM and 467 nM.
For `O=c1[nH]c2ccc(-c3cc(NCCc4c(F)cc(Br)cc4F)ncn3)cc2o1` [Example 266, 6-{6-[2-(4-Bromo-2,6-difluoro-phenyl)-ethylamino]-pyrimidin-4-yl}-3H-benzooxazol-2-one], the half-inhibitory concentration (IC50) stood at 65 nM in assay [1] and 368 nM in assay [2].
With `COc1cc(C(F)(F)F)ccc1CCNc1cc(-c2ccc(C(=O)O)c(SC)c2)ncn1` [Example 206, 4-{6-[2-(2-Methoxy-4-trifluoromethyl-phenyl)-ethylamino]-pyrimidin-4-yl}-2-methylsulfanyl-benzoic acid], the IC50 worked out at 315 nM in assay [1] and 372 nM in assay [2].
Turning to `CCCc1cc(-c2cc(NCCc3ccc(C(F)(F)F)cc3OC)ncn2)ccc1C(=O)O` [Example 207, 4-{6-[2-(2-Methoxy-4-trifluoromethyl-phenyl)-ethylamino]-pyrimidin-4-yl}-2-propyl-benzoic acid], the half-maximal inhibitory concentration (IC50) in assay [1] was determined as 721 nM; in assay [2], 491 nM.
